Measured values reported in patent US7786152B2, “Compound” (priority 2002, dated 2010).

What follows are compounds tested against T1, Human 11βHSD1 (Homo sapiens, UniProt P28845) (assay: 11β HSD1 cortisol radioimmunoassay (RIA) with human hepatic microsomes). Settings: read-out: % inhibition of Human 11βHSD1 @ 10 μM.
T1 construct: the enzyme source, native hepatic enzyme compared to recombinant enzyme; tissue XenoTech H0610/Lot 0210078; host or cells: human hepatic microsomes
Format: biochemical
Experimental: Biological Assay Development Using Human 11β-Hydroxysteroid Dehydrogenase Type 1. Standard Operating Procedure for the 11β-Hydroxysteroid Dehydrogenase Type 1 Cortisol Radioimmunoassay. 11β HSD1 Cortisol RIA
Enzyme assay buffer: 30 mM Tris-HCL, pH 7.2 containing 1 mM EDTA
Antibody binding buffer: 50 mM Tris-HCL, pH 8, containing 0.1 M NaCl and 0.1% gelatin
Dilute into assay buffer 1 in 25. Also dilute neat DMSO 1 in 25 into assay buffer for controls.
Dilute this 1 in 50 into assay buffer.
Prepare NADPH as a 1.8 mg/ml solution in assay buffer.
Mix these 3 solutions 1:1:1 to make a solution of sufficient volume for 25 μl additions to each sample. Add 0.5 μCi tritiated cortisone per 25 μl and mix the solution well.
Microsome preparation: Dilute stock 20 mg/ml solution 1 in 100 with assay buffer.
Dextran coated charcoal preparation: Make a 20 mg/ml solution in antibody binding buffer and chill on ice.
Enzyme assay: To a u-bottom polypropylene 96 well plate add:
25 μl compound dilution or diluted DMSO to controls, NSB's and blanks
10 μl 1 mM GA in DMSO (enzyme stop solution) to blanks
25 μl substrate mixture to all samples
50 μl diluted microsomes to all samples
Incubate plate for 30 min at 37° C. shaking
Add 10 μl enzyme stop solution to all wells except the blanks
Add 100 μl antibody solution to all wells except the NSB's, add antibody binding buffer to these wells
Incubate at 37° C. for 1 h
Chill plate on ice for 15 min
Add 50 μl/well charcoal solution and mix with an 8-channel pipette (4-5 aspirations)
Centrifuge at 4° C., 2000×g for 15 min
Transfer 100 μl supernatant into an Optiplate, also add 25 μl substrate mixture to 2 empty wells to indicate counting efficiency
Add 200 μl Microscint-40 to all wells and count on a Topcount
The 11β HSD1 enzyme assay was carried out following the standard operating procedure described above in u-bottom polypropylene 96 well plates or 1.5 ml Eppendorf tubes as indicated for each experiment. Subsequent to stopping the enzyme reaction, 100 μl antibody prepared in buffer 3 unless otherwise indicated was added to test samples and 100 μl buffer 3 was added to the NSB samples. The samples were incubated for 1 hour at 37° C. and the chilled on ice for 15 mins. Dextran coated charcoal (50 μl/sample) prepared to the indicated concentration in buffer 3 was added and the samples were mixed (vortex for tubes and aspiration 5 times with an 8-channel pipette for 96 well plates) and chilled for a further 10 min. The samples were centrifuged at 2000×g for 15 min at 4° C. to pellet the charcoal. Aliquots of the supernatant (100 μl) were transferred to an Optiplate and counted on the Topcount in 150-200 μl Microscint 40. In some experiments, aliquots of supernatant were transferred to scintillation vials and counted on the Tricarb LSC in 5 ml Ultima Gold scintillant.
Substrate saturation was examined. The enzyme assay was carried out exactly described in the methods section, in Buffer 3 with 10 μg/well microsomal protein and with [cold cortisone] as indicated. [3H]-cortisone was 0.5 μCi/sample throughout. The reaction was stopped after 30 min by the addition of 10 μl stop solution. The RIA was carried out exactly as indicated in the methods section.
It is reported that DMSO can both increase and reduce microsomal enzyme activity, depending on the concentration, presumably due to effects on the microsomal membranes.

T1 sequence (P28845 whole entry): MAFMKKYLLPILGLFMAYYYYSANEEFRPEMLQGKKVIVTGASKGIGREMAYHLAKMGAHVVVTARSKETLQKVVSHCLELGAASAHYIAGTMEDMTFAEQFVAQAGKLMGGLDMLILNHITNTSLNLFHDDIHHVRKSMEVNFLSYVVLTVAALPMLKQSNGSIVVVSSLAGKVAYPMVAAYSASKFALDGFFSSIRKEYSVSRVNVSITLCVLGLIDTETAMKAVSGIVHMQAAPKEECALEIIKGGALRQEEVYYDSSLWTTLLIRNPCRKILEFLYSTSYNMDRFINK

Row | SMILES | inhibition at 10 µM
1 | Cc1nc2cc(NS(=O)(=O)c3ccc(Cl)cc3Cl)ccc2s1 [compound 412] | 36%
2 | Cc1nc2cc(NS(=O)(=O)c3cccc(Cl)c3C)ccc2s1 [compound 413] | 29%
3 | CCCc1ccc(S(=O)(=O)Nc2ccc3sc(C)nc3c2)cc1 [compound 421] | 42%
4 | COc1ccc(S(=O)(=O)Nc2ccc3sc(C)nc3c2)cc1 [compound 424] | 47%
5 | Cc1nc2cc(NS(=O)(=O)c3c(C)cccc3Cl)ccc2s1 [compound 425] | 41%
6 | Cc1nc2cc(N(C)S(=O)(=O)c3cccc(Cl)c3C)ccc2s1 [compound 469] | 66%
7 | CCN(c1ccc2sc(C)nc2c1)S(=O)(=O)c1cccc(Cl)c1C [compound 470] | 54%
8 | Cc1nc2cc(NS(=O)(=O)c3ccc(Br)cc3)ccc2s1 [compound 519] | 48%
9 | Cc1nc2cc(NS(=O)(=O)c3ccc(-c4ccccc4)cc3)ccc2s1 [compound 521] | 60%
10 | Cc1nc2cc(NS(=O)(=O)c3c(Cl)cc(Cl)cc3Cl)ccc2s1 [compound 522] | 47%
11 | Cc1nc2cc(NS(=O)(=O)c3ccc(Br)cc3C)ccc2s1 [compound 523] | 61%
12 | Cc1nc2cc(NS(=O)(=O)c3cccc4cccnc34)ccc2s1 [compound 552] | 45%
13 | Cc1nc2cc(NS(=O)(=O)c3cccc4ccccc34)ccc2s1 [compound 553] | 48%
14 | Cc1nc2cc(NS(=O)(=O)c3cccc4c(N(C)C)cccc34)ccc2s1 [compound 554] | 53%
15 | Cc1nc2cc(NS(=O)(=O)c3cc(Cl)ccc3Cl)ccc2s1 [compound 580] | 30%
16 | Cc1nc2cc(NS(=O)(=O)c3ccc4c(c3)CN(C(=O)C(F)(F)F)CC4)ccc2s1 [compound 581] | 29%
17 | COc1ccc(Cl)cc1S(=O)(=O)Nc1ccc2sc(C)nc2c1 [compound 582] | 34%
18 | Cc1nc2cc(NS(=O)(=O)c3ccccc3C#N)ccc2s1 [compound 583] | 28%
19 | COc1cc(C)ccc1S(=O)(=O)Nc1ccc2sc(C)nc2c1 [compound 584] | 20%
20 | Cc1nc2cc(NS(=O)(=O)c3ccc(Oc4ccccc4)cc3)ccc2s1 [compound 585] | 58%
21 | CC(=O)c1ccccc1S(=O)(=O)Nc1ccc2sc(C)nc2c1 [compound 701] | 41%
22 | Cc1nc2cc(NS(=O)(=O)c3c(C(C)C)cc(C(C)C)cc3C(C)C)ccc2s1 [compound 703] | 37%
23 | Cc1nc2cc(NS(=O)(=O)c3ccc(C(C)C)cc3)ccc2s1 [compound 704] | 44%
24 | COC(=O)c1ccccc1S(=O)(=O)Nc1ccc2sc(C)nc2c1 [compound 705] | 28%
25 | COc1c(C)c(C)c(S(=O)(=O)Nc2ccc3sc(C)nc3c2)c(C)c1C [compound 708] | 21%
26 | Cc1nc2cc(NS(=O)(=O)c3ccc(C(C)(C)C)cc3)ccc2s1 [compound 709] | 49%
27 | Cc1nc2cc(NS(=O)(=O)c3c(C)c(C)c(C)c(C)c3C)ccc2s1 [compound 710] | 35%
28 | CCSc1nc2ccc(NS(=O)(=O)c3cccc(Cl)c3C)cc2s1 [compound 751] | 22%
